Measurements as given in patent EP1285918A1, “C7 Ester substituted taxanes as antitumor agents” (Florida State University Research Foundation, Inc., priority 2001, dated 2003).
Like-named read-outs stand apart in the source and are kept apart here.

Columns and labels:
[1] = system: A375 Human Melanoma Xenograft; conditions: 10 mice/group, study end Day 60
Method: Female nu/nu mice (6-8 weeks of age; implanted subcutaneously with 1 mm^3 A375 melanoma fragments in the flank) were sorted into one control and four treatment groups of ten mice each (group mean tumor size of 96-98 mg). […] The study was terminated on Day 60.
The mean days of survival is the number of days after which a neoplasm reached a size of 2.0 g and the animal was euthanized. A complete response is obtained if the tumor is not palpable at the end of the study. A partial response is obtained if the tumor shrinks to a size smaller than its size on Day 1 of the study.

[2] = system: VM46 Human Colon Carcinoma Xenografts; conditions: 72.6 mg/kg i.v. qd x 1, 6 mice/group, study end Day 64
Method: (§1) Other antitumor compounds were similarly formulated. […] The dosing volume was 0.3 mL per 20 g mouse.
(§2) Female NCr-nude mice (6-8 weeks of age, implanted subcutaneously with 1 mm^3 VM46 colon carcinoma fragments in the flank) were sorted into treatment groups of six mice each. […] Dosing was initiated on Day 1. The antitumor compounds were given i.v. at an estimated maximum tolerated dose (MTD) appropriate for each agent on a qd x 1 schedule (single administration of compound). […] Taxotere was given i.v. at a dose of 70 mg/kg on a qd x 1 schedule. The vehicle was given i.v. to control mice in Group 1 in each test on Day 1 (qd x 1) schedule. Treatment groups are detailed in Table 13. The VM46 study ended on Day 64.
(§3) The results are summarized in table 14 and include mean days of survival (MDS), number of toxic deaths, number of survivors, number of complete or partial responses, and number with stable disease. The mean days of survival is the number of days after which a neoplasm reached a size of 1.5 g and the animal was euthanized. A complete response is obtained if the tumor is not palpable at the end of the study. A partial response is obtained if the tumor shrinks to a size smaller than its size on Day 1 of the study. […]

[3] = system: DU 145 Human Prostate Carcinoma Xenografts; conditions: DU145
Method: (§4) Other antitumor compounds were similarly formulated. […] The dosing volume was 0.3 ml per 20 g mouse.
Male NCr-nude mice (implanted subcutaneously with 1 mm^3 DU145 prostate carcinoma fragments in the flank) were sorted into treatment groups of five mice each. […] Dosing was initiated on Day 1. The antitumor compounds were given i.v. at an estimated maximum tolerated dose (MTD) appropriate for each agent on a qd x 1 schedule (single administration of compound). […] The vehicle was administered i.v. to control mice in Group 1 on the qd x 1 schedule. The study was terminated on Day 91. Treatment groups are detailed in Table 5.
The mean days of survival is the number of days after which a neoplasm reached a size of 1.5 g and the animal was euthanized. A complete response is obtained if the tumor is not palpable at the end of the study. A partial response is obtained if the tumor shrinks to a size smaller than its size on Day 1 of the study. […]

[4] = system: Panc-1 Human Pancreatic Carcinoma Xenografts; conditions: 6 mice/group
Method: as §1
as §2, with “Panc-1 pancreatic” for “VM46 colon”, “12.” for “13.”, “The” for “The VM46”, “was terminated” for “ended”, “63.” for “64.”
The mean days of survival is the number of days after which a neoplasm reached a size of 1.5 g and the animal was euthanized. A complete response is obtained if the tumor is not palpable at the end of the study. A partial response is obtained if the tumor shrinks to a size smaller than its size on Day 1 of the study.

[5] = system: A375 Human Melanoma Xenografts; conditions: A375
Method: as §4
Female NCr-nude mice (implanted subcutaneously with 1 mm^3 A375 melanoma in the flank) were sorted into treatment groups of six mice each, except for the Taxotere group having seven mice each. […] Dosing was initiated on Day 1. The antitumor compounds were given i.v. at an estimated maximum tolerated dose (MTD) appropriate for each agent on a qd x 1 schedule (single administration of compound). […] Taxotere was given i.v. on a qd x 1 schedule at a dose of 70 mg/kg. The vehicle was administered i.v. to control mice in Group 1 on the qd x 1 schedule. Treatment groups are detailed in Table 9. The study was terminated on Day 60.
as §3, with “Table 10” for “table 14”, “tumor” for “neoplasm”, “2.0” for “1.5”

[6] = oral 36.5 mg/kg on Days 1, 15, 29 and 43 (q14dx3, cumulative 109.5 mg/kg)
[7] = oral 73 mg/kg on Day 1, then 21.9 mg/kg on Days 11, 21, 31 and 41 (cumulative 160.6 mg/kg)
[8] = i.v. qd x 1 (mg/kg: Taxol 24, 1351 107.6, 1393 72.6, 1401 107.6, 1418 107.6, 1424 195.1), 5 mice/group, Day 91
[9] = Panc-1, i.v. qd x 1 (mg/kg: 1393 72.6, 1418 107.6), Day 63
[10] = i.v. qd x 1 at estimated MTD, study end Day 63
[11] = i.v. qd x 1 (mg/kg: Taxol 24, 1351 107.6, 1393 72.6, 1401 107.6, 1418 107.6, 1424 195.1, Taxotere 70), Day 60

CCC(=O)O[C@H]1C[C@H]2OC[C@@]2(OC(C)=O)[C@H]2[C@H](OC(=O)c3ccccc3)[C@]3(O)C[C@H](OC(=O)[C@H](O)[C@@H](NC(=O)OC(C)(C)C)c4ccco4)C(C)=C([C@@H](O)C(=O)[C@]12C)C3(C)C [Compound 1393, 3'-Desphenyl-3'-(2-furyl)-7-propionyl taxotere]
Complete Response ([1]; 104 mg/kg single oral bolus): 9
Partial Response ([1]; 104 mg/kg single oral bolus): 0
Stable Disease ([1]; 104 mg/kg single oral bolus): 0
Toxic Deaths ([1]; 104 mg/kg single oral bolus): 0
Complete Response [1, 6]: 0
Partial Response [1, 6]: 1
Stable Disease [1, 6]: 3
Toxic Deaths [1, 6]: 0
Complete Response [1, 7]: 8
Partial Response [1, 7]: 1
Stable Disease [1, 7]: 0
Toxic Deaths [1, 7]: 1
Complete Response [2]: 1
Mean Score [2]: 3.2 ± 1.4
Partial Response [2]: 0
Stable Disease [2]: 0
Toxic Deaths [2]: 0
MDS (n) ([2]; days until tumor reached 1.5 g): 46.2 ± 6.1 (5) days
complete response rate ([3]; 1393 72.6 mg/kg i.v. qd x 1): 60%
Complete Response [3, 8]: 3
Partial Response [3, 8]: 1
Stable Disease [3, 8]: 0
Mean Score ([3]; i.v. qd x 1 (mg/kg: Taxol 24, 1351 107.6, 1393 72.6, 1401 107.6, 1418 107.6, 1424 195.1), tumor score 1 to 10, group mean): 8 ± 1.5
Complete Response [4, 9]: 1
Partial Responses [4, 9]: 4
Toxic Deaths [4, 10]: 0
Complete Response [5, 11]: 0
Partial Response [5, 11]: 0
Stable Disease [5, 11]: 0
Toxic Deaths [5, 11]: 0
Mean Score ([5]; i.v. qd x 1 (mg/kg: Taxol 24, 1351 107.6, 1393 72.6, 1401 107.6, 1418 107.6, 1424 195.1, Taxotere 70), tumor score 1 to 10, group mean): 3±0

CCC(=O)OC1CC2OCC2(OC(C)=O)C2C(OC(=O)c3ccccc3)C3(O)CC(OC(=O)C(O)C(NC(=O)OC(C)(C)C)c4ccco4)C(C)=C(C(O)C(=O)C12C)C3(C)C (stereo not drawn) [Compound 1393, 3'-Desphenyl-3'-(2-furyl)-7-propionyl taxotere]
Survivors ([1]; 104 mg/kg single oral bolus): 9
Survivors [1, 6]: 4
Survivors [1, 7]: 9
Survivors [2]: 1
Survivors [3, 8]: 4
Survivors [4, 10]: 6
Survivors [5, 11]: 0
survival extension compared to Group 1 controls ([5]; i.v. qd x 1 (mg/kg: Taxol 24, 1393 72.6, 1418 107.6, Taxotere 70)): 250%
